Tests used:
[1] = system: human saphenous vein vascular smooth muscle (sv-VSMC) cells; assay: TNFα induced superoxide production (DHE) in sv-VSMC (Maresin-1); assay type: cell-based; details: 100 nM; TNFα 10 ng/ml 4 hr
Description: Mar-1. Cells were grown in 8-well chamber slides at a density of 15000 cells/well for 2 days for VSMCs and 50000 cells/well for 2 days for ECs in a 96 well plate. After treatments, cells were incubated with dihydroethidium (DHE, 3 μM, Invitrogen) or CellRox (Invitrogen Inc, 5 μM for ECs) in media for 30 minutes at 37° C. in a humidified chamber with 5% CO2 protected from light. DAPI nuclear counter staining was utilized for DHE staining. For DHE, fluorescence was detected with TRITC filter allowing the detection of the DHE emission wavelength of 590-620 nm. Fluorescence quantitation was performed using ImageJ analysis software. For ECs, fluorescence measurements were taken using a Spectramax M2e plate reader.
FIGS. 13A-13D. Representative merged images of DHE staining, counterstained with DAPI. (A), Negative control. (B), TNFα at 10 ng/ml for 4 hr. […] (E) Quantitative comparison of DHE staining intensity in the nucleus of human saphenous vein vascular smooth muscle (sv-VSMC) cells, treated with TNFα and 7S and 7R-Maresin-1 with and without pertussis toxin. (F) Quantitative comparison of cellular ROS production by CellRox (Life technologies, Carlsbad, Calif.) in human saphenous vein endothelial (EC) cells treated with TNFα (1 ng/nil) and 7S-Maresin-1 (N>=3). […]

IKKα/β subunit = assay: TNFα induced phosphorylation of IKKα/β in sv-ECs, western blot; assay type: cell-based, human; details: 100 nm, 30 min; TNFα 1 ng/ml 15 min
Description: Mar-1. VSMCs and ECs were lysed in buffer (20 mM Tris-Hcl, 137 mM NaCl, 10% Glycerol, 1% NP-40) with protease and phosphatase inhibitors (Halt inhibitor capsules, Pierce, Inc) by sonication on ice. The lysates were instantly snap frozen in liquid nitrogen and thawed back later for western blotting. After centrifugation (15,000 g for 20 minutes), the whole cell extract (supernatant) was collected and was heated at 100° C. in Laemlli buffer for 6 minutes. Lysates were run on Mini-Protean TGX gels
(Biorad) and transferred on PVDF membranes which were probed with appropriate primary and secondary antibodies and visualized for quantitation using q-dot nanocrystals (Life Technologies, Inc).
Cells were pretreated with 100 nm of 7S/7R-Maresin-1 for 30 min, followed by TNFα (10 ng/ml for VSMC and 1 ng/ml for EC) for 15 min. Whole cell lysates were collected and probed for pan and phospho IKK (Cell Signaling Inc.).
FIG. 18. IKK-phospho and total IKK western blotting image is representative of three independent experiments. Bar graph represents net quantitative densitometry analysis. N=3. P≤0.05, One-way ANOVA with Dunnett's post hoc test. *: P≤0.05 compared to control, unpaired t-test. †: P≤0.05 compared to TNFα, unpaired t-test. Error bars: SEM.

Compound: CC/C=C\C/C=C\C[C@H](O)\C=C/C=C/C=C/[C@@H](O)C/C=C\CCC(=O)O [7S-Maresin-1, 7S,14R-dihydroxydocosa-4Z,8E,10Z,12Z,16Z,19Z-hexaenoic acid]
- TNF-α-induced superoxide production in VSMC [1]: significantly reduced
- TNFα induced phosphorylation of IKKα/β subunit in human sv-ECs (IKKα/β subunit): Reduce

Reference: patent publication US10111847B2, “Compounds and methods for modulating vascular injury” (The Regents of the University of California, priority 2012, dated 2018)
